Assay results reported in the NIST ThermoML archive (doi:10.1021/je200811n).
Values joined by “and” are separate entries in the source; they are usually repeats but may differ in a detail not shown here. Identical values can stand only once. Numbers after ± are expanded uncertainties.

Settings: Hot wire method

SMILES: F/C=C/C(F)(F)F [trans-1,3,3,3-tetrafluoropropene]
- thermal conductivity (341.16 K, 8206 kPa, Liquid): 0.06693 ± 0.00076 W/m/K
- thermal conductivity (341.17 K, 3028 kPa, Liquid): 0.06204 ± 0.0007 W/m/K
- thermal conductivity (341.17 K, 12132 kPa, Liquid): 0.07036 ± 0.00078 W/m/K
- thermal conductivity (341.2 K, 1573 kPa, Liquid): 0.06027 ± 0.00068 W/m/K
- thermal conductivity (341.38 K, 96 kPa, Gas): 0.01689 ± 0.00057 W/m/K
- thermal conductivity (341.39 K, 20076 kPa, Liquid): 0.07508 ± 0.00083 W/m/K
- thermal conductivity (341.4 K, 194 kPa, Gas): 0.01707 ± 0.00057 W/m/K
- thermal conductivity (341.4 K, 3026 kPa, Liquid): 0.06202 ± 0.0007 W/m/K
- thermal conductivity (341.42 K, 8129 kPa, Liquid): 0.06706 ± 0.00075 W/m/K
- thermal conductivity (341.42 K, 16390 kPa, Liquid): 0.07285 ± 0.00081 W/m/K
- thermal conductivity (341.44 K, 21979 kPa, Liquid): 0.07653 ± 0.00085 W/m/K
- thermal conductivity (341.45 K, 1581 kPa, Liquid): 0.06025 ± 0.00068 W/m/K
- thermal conductivity (341.48 K, 12128 kPa, Liquid): 0.07023 ± 0.00079 W/m/K
- thermal conductivity (341.48 K, 20072 kPa, Liquid): 0.07503 ± 0.00083 W/m/K
- thermal conductivity (341.49 K, 5174 kPa, Liquid): 0.06424 ± 0.00072 W/m/K
- thermal conductivity (341.5 K, 3025 kPa, Liquid): 0.06178 ± 0.0007 W/m/K
- thermal conductivity (341.51 K, 16388 kPa, Liquid): 0.07271 ± 0.00081 W/m/K
- thermal conductivity (341.52 K, 8125 kPa, Liquid): 0.0669 ± 0.00075 W/m/K
- thermal conductivity (341.52 K, 21981 kPa, Liquid): 0.07638 ± 0.00085 W/m/K
- thermal conductivity (341.54 K, 1585 kPa, Liquid): 0.05998 ± 0.00068 W/m/K
- thermal conductivity (341.58 K, 5172 kPa, Liquid): 0.06405 ± 0.00072 W/m/K
- thermal conductivity (341.58 K, 8204 kPa, Liquid): 0.06619 ± 0.00074 W/m/K
- thermal conductivity (341.58 K, 12127 kPa, Liquid): 0.07002 ± 0.00079 W/m/K
- thermal conductivity (341.64 K, 194 kPa, Gas): 0.01696 ± 0.00057 W/m/K
- thermal conductivity (341.72 K, 673 kPa, Gas): 0.01756 ± 0.00059 W/m/K
- thermal conductivity (341.75 K, 673 kPa, Gas): 0.01724 ± 0.00058 W/m/K
- thermal conductivity (341.76 K, 3022 kPa, Liquid): 0.0618 ± 0.0007 W/m/K
- thermal conductivity (341.77 K, 449 kPa, Gas): 0.01756 ± 0.00059 W/m/K
- thermal conductivity (341.77 K, 450 kPa, Gas): 0.01753 ± 0.00059 W/m/K
- thermal conductivity (341.81 K, 1588 kPa, Liquid): 0.06 ± 0.00068 W/m/K
- thermal conductivity (341.81 K, 20066 kPa, Liquid): 0.07498 ± 0.00083 W/m/K
- thermal conductivity (341.83 K, 1416 kPa, Gas): 0.01808 ± 0.00032 W/m/K
- thermal conductivity (341.84 K, 16385 kPa, Liquid): 0.0727 ± 0.00081 W/m/K
- thermal conductivity (341.84 K, 21982 kPa, Liquid): 0.07632 ± 0.00084 W/m/K
- thermal conductivity (341.87 K, 297 kPa, Gas): 0.0174 ± 0.00058 W/m/K
- thermal conductivity (341.88 K, 8122 kPa, Liquid): 0.06684 ± 0.00075 W/m/K
- thermal conductivity (341.91 K, 194 kPa, Gas): 0.01763 ± 0.00059 W/m/K
- thermal conductivity (341.92 K, 12126 kPa, Liquid): 0.06996 ± 0.00078 W/m/K
- thermal conductivity (341.92 K, 20063 kPa, Liquid): 0.07481 ± 0.00083 W/m/K
- thermal conductivity (341.94 K, 8199 kPa, Liquid): 0.0668 ± 0.00075 W/m/K
- thermal conductivity (341.95 K, 21979 kPa, Liquid): 0.07618 ± 0.00084 W/m/K
- thermal conductivity (341.96 K, 16381 kPa, Liquid): 0.07254 ± 0.0008 W/m/K
- thermal conductivity (341.97 K, 1251 kPa, Gas): 0.01812 ± 0.00032 W/m/K
- thermal conductivity (341.97 K, 5173 kPa, Liquid): 0.06395 ± 0.00072 W/m/K
- thermal conductivity (342 K, 8119 kPa, Liquid): 0.06663 ± 0.00074 W/m/K
- thermal conductivity (342.04 K, 96 kPa, Gas): 0.0178 ± 0.00059 W/m/K
- thermal conductivity (342.04 K, 671 kPa, Gas): 0.01723 ± 0.00058 W/m/K
- thermal conductivity (342.04 K, 1049 kPa, Gas): 0.01784 ± 0.00032 W/m/K
- thermal conductivity (342.04 K, 1050 kPa, Gas): 0.01784 ± 0.00032 W/m/K
- thermal conductivity (342.04 K, 12122 kPa, Liquid): 0.06981 ± 0.00078 W/m/K
- thermal conductivity (342.06 K, 8193 kPa, Liquid): 0.0666 ± 0.00074 W/m/K
- thermal conductivity (342.08 K, 870 kPa, Gas): 0.01766 ± 0.00059 W/m/K
- thermal conductivity (342.09 K, 450 kPa, Gas): 0.0176 ± 0.00059 W/m/K
- thermal conductivity (342.09 K, 868 kPa, Gas): 0.01764 ± 0.00059 W/m/K
- thermal conductivity (342.09 K, 5187 kPa, Liquid): 0.06375 ± 0.00072 W/m/K
- thermal conductivity (342.1 K, 450 kPa, Gas): 0.01757 ± 0.00059 W/m/K
- thermal conductivity (342.19 K, 297 kPa, Gas): 0.0174 ± 0.00058 W/m/K
- thermal conductivity (342.2 K, 297 kPa, Gas): 0.01731 ± 0.00058 W/m/K
- thermal conductivity (342.25 K, 1250 kPa, Gas): 0.01811 ± 0.00032 W/m/K
- thermal conductivity (342.26 K, 194 kPa, Gas): 0.01748 ± 0.00058 W/m/K
- thermal conductivity (342.26 K, 1414 kPa, Gas): 0.01822 ± 0.00032 W/m/K
- thermal conductivity (342.27 K, 20059 kPa, Liquid): 0.07476 ± 0.00083 W/m/K
- thermal conductivity (342.3 K, 21979 kPa, Liquid): 0.07611 ± 0.00084 W/m/K
- thermal conductivity (342.32 K, 16372 kPa, Liquid): 0.07244 ± 0.0008 W/m/K
- thermal conductivity (342.33 K, 1047 kPa, Gas): 0.01784 ± 0.00032 W/m/K
- thermal conductivity (342.33 K, 1048 kPa, Gas): 0.01781 ± 0.00032 W/m/K
- thermal conductivity (342.36 K, 669 kPa, Gas): 0.01728 ± 0.00058 W/m/K
- thermal conductivity (342.37 K, 670 kPa, Gas): 0.01729 ± 0.00058 W/m/K
- thermal conductivity (342.38 K, 866 kPa, Gas): 0.01767 ± 0.00059 W/m/K
- thermal conductivity (342.39 K, 867 kPa, Gas): 0.01765 ± 0.00059 W/m/K
- thermal conductivity (342.4 K, 8117 kPa, Liquid): 0.06658 ± 0.00074 W/m/K
- thermal conductivity (342.42 K, 450 kPa, Gas): 0.01758 ± 0.00059 W/m/K
- thermal conductivity (342.43 K, 451 kPa, Gas): 0.01761 ± 0.00059 W/m/K
- thermal conductivity (342.43 K, 12120 kPa, Liquid): 0.06971 ± 0.00078 W/m/K
- thermal conductivity (342.43 K, 21977 kPa, Liquid): 0.07598 ± 0.00084 W/m/K
- thermal conductivity (342.44 K, 97 kPa, Gas): 0.01786 ± 0.0006 W/m/K
- thermal conductivity (342.46 K, 8190 kPa, Liquid): 0.06655 ± 0.00074 W/m/K
- thermal conductivity (342.46 K, 16363 kPa, Liquid): 0.07249 ± 0.0008 W/m/K
- thermal conductivity (342.55 K, 1411 kPa, Gas): 0.01807 ± 0.00032 W/m/K
- thermal conductivity (342.56 K, 296 kPa, Gas): 0.01736 ± 0.00058 W/m/K and 0.01734 ± 0.00058 W/m/K
- thermal conductivity (342.56 K, 1249 kPa, Gas): 0.01814 ± 0.00032 W/m/K
- thermal conductivity (342.56 K, 8113 kPa, Liquid): 0.06632 ± 0.00074 W/m/K
- thermal conductivity (342.58 K, 12118 kPa, Liquid): 0.06949 ± 0.00077 W/m/K
- thermal conductivity (342.59 K, 1260 kPa, Gas): 0.01776 ± 0.00032 W/m/K
- thermal conductivity (342.64 K, 1045 kPa, Gas): 0.01782 ± 0.00032 W/m/K
- thermal conductivity (342.64 K, 1046 kPa, Gas): 0.01782 ± 0.00032 W/m/K
- thermal conductivity (342.65 K, 194 kPa, Gas): 0.01771 ± 0.00059 W/m/K
- thermal conductivity (342.71 K, 668 kPa, Gas): 0.01733 ± 0.00058 W/m/K
- thermal conductivity (342.71 K, 864 kPa, Gas): 0.01769 ± 0.00059 W/m/K
- thermal conductivity (342.72 K, 865 kPa, Gas): 0.01767 ± 0.00059 W/m/K
- thermal conductivity (342.78 K, 20073 kPa, Liquid): 0.07479 ± 0.00083 W/m/K
- thermal conductivity (342.79 K, 450 kPa, Gas): 0.01763 ± 0.00059 W/m/K
- thermal conductivity (342.79 K, 451 kPa, Gas): 0.01763 ± 0.00059 W/m/K
- thermal conductivity (342.81 K, 21978 kPa, Liquid): 0.07589 ± 0.00084 W/m/K
- thermal conductivity (342.85 K, 97 kPa, Gas): 0.01784 ± 0.0006 W/m/K
- thermal conductivity (342.85 K, 16357 kPa, Liquid): 0.07241 ± 0.0008 W/m/K
- thermal conductivity (342.94 K, 296 kPa, Gas): 0.0174 ± 0.00058 W/m/K and 0.01739 ± 0.00058 W/m/K
- thermal conductivity (342.96 K, 20077 kPa, Liquid): 0.07456 ± 0.00083 W/m/K
- thermal conductivity (342.97 K, 1044 kPa, Gas): 0.01783 ± 0.00032 W/m/K
- thermal conductivity (342.97 K, 21978 kPa, Liquid): 0.07571 ± 0.00084 W/m/K
- thermal conductivity (342.98 K, 1044 kPa, Gas): 0.01784 ± 0.00032 W/m/K
- thermal conductivity (342.98 K, 12116 kPa, Liquid): 0.06939 ± 0.00077 W/m/K
- thermal conductivity (343.02 K, 16352 kPa, Liquid): 0.07225 ± 0.0008 W/m/K
- thermal conductivity (343.05 K, 862 kPa, Gas): 0.01767 ± 0.00059 W/m/K
- thermal conductivity (343.05 K, 863 kPa, Gas): 0.0177 ± 0.00059 W/m/K
- thermal conductivity (343.06 K, 194 kPa, Gas): 0.01766 ± 0.00059 W/m/K
- thermal conductivity (343.07 K, 666 kPa, Gas): 0.01736 ± 0.00058 W/m/K
- thermal conductivity (343.08 K, 667 kPa, Gas): 0.01735 ± 0.00058 W/m/K
- thermal conductivity (343.15 K, Liquid): 0.05993 ± 0.00044 W/m/K
- thermal conductivity (343.16 K, 1405 kPa, Gas): 0.01819 ± 0.00032 W/m/K
- thermal conductivity (343.25 K, 1255 kPa, Gas): 0.01787 ± 0.00032 W/m/K
- thermal conductivity (343.28 K, 96 kPa, Gas): 0.01785 ± 0.0006 W/m/K
- thermal conductivity (343.32 K, 1043 kPa, Gas): 0.01783 ± 0.00032 W/m/K
- thermal conductivity (343.35 K, 296 kPa, Gas): 0.01753 ± 0.00059 W/m/K
- thermal conductivity (343.48 K, 194 kPa, Gas): 0.01763 ± 0.00059 W/m/K
